In publication PMC8968748 (Journal of medicinal chemistry, 2021):
≈ marks a conversion by molar mass, not a printed value.

Legend:
[1] = Parallel artificial membrane permeability assay; format: in vitro ADME; details: for PAMPA (10^−6 cm/s): pH 7.4
[2] = test system: U87 mIDH1 (R132H) xenograft; assay: PK/PD in U87 R132H mIDH1 xenograft mouse model; format: in vivo; details: single 30 mg/kg p.o.
IDH1(R132H)-86b = assay: SplitLuc CETSA target engagement in HEK293T cells; format: cell-based; details: relative to 119
[3] = Mouse pharmacokinetic study; format: in vivo
U87-mIDH1 (R132H) cells = assay: Cellular 2-HG production assay; format: cell-based, human
[4] = PK/PD in U87 R132H mIDH1 xenograft mouse model; format: in vivo; details: female, athymic nude (nu/nu NCr), mouse, in vivo, po, 30 mg/kg
WT IDH1 = WT IDH1 (Homo sapiens, UniProt O75874); assay: IDH1-WT selectivity assay; format: biochemical
IDH1 R132H = IDH1 R132H (Homo sapiens, UniProt O75874, R132H); assay: diaphorase/resazurin-coupled mIDH1 R132H enzyme assay; format: biochemical; details: for IDH1 R132H IC50 Fold improvement over 87: relative to compound 87
IDH1 R132C = IDH1 R132C (Homo sapiens, UniProt O75874, R132C); assay: diaphorase/resazurin-coupled mIDH1 R132C enzyme assay; format: biochemical; details: for IDH1 R132C IC50 Fold improvement over 87: relative to compound 87
Kinetic solubility assay = format: physicochemical; details: phosphate buffer, pH 7.4
[5] = Single time point rat liver microsome stability assay; format: in vitro ADME; details: rat liver microsomes, pH 7.4

IDH1 R132H, sequence (O75874 whole entry R132H): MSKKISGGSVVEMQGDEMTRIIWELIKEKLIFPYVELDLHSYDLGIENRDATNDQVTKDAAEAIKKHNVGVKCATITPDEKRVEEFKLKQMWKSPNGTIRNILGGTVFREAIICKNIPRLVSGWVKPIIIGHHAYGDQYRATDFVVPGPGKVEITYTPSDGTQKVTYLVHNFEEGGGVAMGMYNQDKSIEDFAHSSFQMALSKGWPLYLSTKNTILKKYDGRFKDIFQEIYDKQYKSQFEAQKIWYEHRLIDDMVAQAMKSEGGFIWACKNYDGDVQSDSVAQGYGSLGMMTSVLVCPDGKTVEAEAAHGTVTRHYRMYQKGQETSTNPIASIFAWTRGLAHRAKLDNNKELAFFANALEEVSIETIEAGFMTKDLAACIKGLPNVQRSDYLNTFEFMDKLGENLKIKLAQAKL
IDH1 R132C, sequence (O75874 whole entry R132C): as the sequence (O75874 whole entry R132H) above, with H132C counted along it
WT IDH1, sequence (O75874 whole entry): as the sequence (O75874 whole entry R132H) above, with H132R counted along it

CCc1ccc(OC)cc1-n1c(C=C(C)C)c(C(=O)N2CCNCC2)cc(-c2nc(-c3ccc(Cl)cc3)cs2)c1=O (mixture of isomers) [Compound 118, 3-(4-(4-Chlorophenyl)thiazol-2-yl)-1-(2-ethyl-5-methoxyphenyl)-6-(2-methylprop-1-en-1-yl)-5-(piperazine-1-carbonyl)pyridin-2(1H)-one]
PAMPA (10^−6 cm/s) [1]: 549 10^−6 cm/s

CCc1ccc(Cl)cc1-n1c(C=C(C)C)c(C(=O)N2CCNCC2)cc(-c2nc(-c3ccc(Cl)cc3)cs2)c1=O (single isomer, unassigned) [(+)-119]
average concentration in tumor at 48 h ([2]; 48 h, 30 mg/kg): 7 µM | reduction in tumor 2-HG compared to AG-120 ([2]; from the 16 h time point onwards): greater reduction in tumor 2-HG | fold more potent than 119 in HEK293 engagement assay (IDH1(R132H)-86b): 13 fold | brain AUC ([3]; CD1 mice, single 30 mg/kg oral dose): 6996 ng·h/g | Kp ([3]; male, CD1, mouse, brain/plasma, po, 30 mg/kg): 0.28 | Cmax ([3]; male, CD1, mouse, plasma, po, 30 mg/kg): ~3340 nM | 2-HG levels lowered by (%) (U87-mIDH1 (R132H) cells; 100 nM, U87-mIDH1 (R132H) cells, 48 h): more than 94% | IC50 (U87-mIDH1 (R132H) cells; Homo sapiens, read-out: potency at reducing 2-HG in the cellular assay): < 0.0007 µM | fold more potent than 119 in U87 2-HG assay (U87-mIDH1 (R132H) cells; relative to 119): 30 fold

N#Cc1ccnc(N2C(=O)CC[C@H]2C(=O)N(c2cncc(F)c2)[C@H](C(=O)NC2CC(F)(F)C2)c2ccccc2Cl)c1 [AG-120]
concentration at 24 h [4]: 1600 nM | concentration at 36 h [4]: 1400 nM | concentration at 48 h [4]: 770 nM

COc1ccc(OC)c(-n2c3c(cc(-c4nc(-c5ccc(Cl)cc5)cs4)c2=O)C(=O)CC(C)(C)C3)c1 [Compound 1, 3-(4-(4-Chlorophenyl)thiazol-2-yl)-1-(2,5-dimethoxyphenyl)-7,7-dimethyl-7,8-dihydroquinoline-2,5(1H,6H)-dione]
off-target activity against WT IDH1 (WT IDH1): no readout interference and off-target activity against WT IDH1

CC(c1ccccc1)n1c2c(cc(-c3nc(-c4ccc(Cl)cc4)cs3)c1=O)C(=O)CC(C)(C)C2 (stereo not drawn) [Compound 48, 3-(4-(4-Chlorophenyl)thiazol-2-yl)-7,7-dimethyl-1-(1-phenylethyl)-7,8-dihydroquinoline-2,5(1H,6H)-dione]
IC50 (IDH1 R132H; IDH1 R132H IC50(μM) ± SD, average of N = 3, reported only where ≥75% inhibition at 38 μM): > 38 µM | inhibition at 38 µM (IDH1 R132C; read-out: IDH1 R132C % inhibition ± SD at 38 μM): 34 ± 1%

CCc1cccc(CC)c1-n1c(C)c(C(=O)NC)cc(-c2nc(-c3ccc(Cl)cc3)cs2)c1=O [Compound 70, 5-(4-(4-Chlorophenyl)thiazol-2-yl)-1-(2,6-diethylphenyl)-N,2-dimethyl-6-oxo-1,6-dihydropyridine-3-carboxamide]
solubility kinetic at 6 h (Kinetic solubility assay): < 1 µM

CCc1cccc(CC)c1-n1c(C)c(C(=O)N2CCNCC2)cc(-c2nc(-c3ccc(Cl)cc3)cs2)c1=O [Compound 87, 3-(4-(4-Chlorophenyl)thiazol-2-yl)-1-(2,6-diethylphenyl)-6-methyl-5-(piperazine-1-carbonyl)pyridin-2(1H)-one]
fold improvement in potency compared to analog 70 (IDH1 R132H; mIDH1 R132H, relative to 70): 7 fold | solubility kinetic at 6 h (Kinetic solubility assay): 6.7 µM (≈ 3.67 µg/mL)

CCCc1c(C(=O)N2CCNCC2)cc(-c2nc(-c3ccc(Cl)cc3)cs2)c(=O)n1-c1c(CC)cccc1CC [Compound 89, 3-(4-(4-Chlorophenyl)thiazol-2-yl)-1-(2,6-diethylphenyl)-5-(piperazine-1-carbonyl)-6-propylpyridin-2(1H)-one]
IDH1 R132H IC50 Fold improvement over 87 (IDH1 R132H): 2.8 fold | PAMPA (10^−6 cm/s) [1]: 134 10^−6 cm/s | IDH1 R132C IC50 Fold improvement over 87 (IDH1 R132C): 15 fold

CCc1cccc(CC)c1-n1c(CC(C)C)c(C(=O)N2CCNCC2)cc(-c2nc(-c3ccc(Cl)cc3)cs2)c1=O [Compound 91, 3-(4-(4-Chlorophenyl)thiazol-2-yl)-1-(2,6-diethylphenyl)-6-isobutyl-5-(piperazine-1-carbonyl)pyridin-2(1H)-one]
IDH1 R132H IC50 Fold improvement over 87 (IDH1 R132H): 1.9 fold | PAMPA (10^−6 cm/s) [1]: 16 10^−6 cm/s | IDH1 R132C IC50 Fold improvement over 87 (IDH1 R132C): 13 fold

CCc1cccc(CC)c1-n1c(C=C(C)C)c(C(=O)N2CCNCC2)cc(-c2nc(-c3ccc(Cl)cc3)cs2)c1=O [Compound 92, 3-(4-(4-Chlorophenyl)thiazol-2-yl)-1-(2,6-diethylphenyl)-6-(2-methylprop-1-en-1-yl)-5-(piperazine-1-carbonyl)pyridin-2(1H)-one]
IDH1 R132H IC50 Fold improvement over 87 (IDH1 R132H): 4.8 fold | PAMPA (10^−6 cm/s) [1]: 225 10^−6 cm/s | IDH1 R132C IC50 Fold improvement over 87 (IDH1 R132C): 26 fold

CCc1cccc(CC)c1-n1c(CC2CC2)c(C(=O)N2CCNCC2)cc(-c2nc(-c3ccc(Cl)cc3)cs2)c1=O [Compound 93, 3-(4-(4-Chlorophenyl)thiazol-2-yl)-6-(cyclopropylmethyl)-1-(2,6-diethylphenyl)-5-(piperazine-1-carbonyl)pyridin-2(1H)-one]
IDH1 R132H IC50 Fold improvement over 87 (IDH1 R132H): 3.8 fold | PAMPA (10^−6 cm/s) [1]: 43 10^−6 cm/s | IDH1 R132C IC50 Fold improvement over 87 (IDH1 R132C): 31 fold

CCc1cccc(CC)c1-n1c(CC2CCNC2)c(C(=O)N2CCNCC2)cc(-c2nc(-c3ccc(Cl)cc3)cs2)c1=O (stereo not drawn) [Compound 98, 3-(4-(4-Chlorophenyl)thiazol-2-yl)-1-(2,6-diethylphenyl)-5-(piperazine-1-carbonyl)-6-(pyrrolidin-3-ylmethyl)pyridin-2(1H)-one]
IDH1 R132H IC50 Fold improvement over 87 (IDH1 R132H): 2.8 fold | PAMPA (10^−6 cm/s) [1]: 24 10^−6 cm/s | IDH1 R132C IC50 Fold improvement over 87 (IDH1 R132C): 12 fold

CCc1cccc(CC)c1-n1c(C=C(C)C)c(C(=O)N2CCNC(C)C2)cc(-c2nc(-c3ccc(Cl)cc3)cs2)c1=O (stereo not drawn) [Compound 99, 3-(4-(4-Chlorophenyl)thiazol-2-yl)-1-(2,6-diethylphenyl)-5-(3-methylpiperazine-1-carbonyl)-6-(2-methylprop-1-en-1-yl)pyridin-2(1H)-one]
half-life at 1 μM [5]: 25 min | Papp at 30 min, 0.05 mM ([1]; PAMPA, pH 7.4, PAMPA (10^−6 cm/s)): 213 ×10⁻⁶ cm/s | solubility at 6 h (Kinetic solubility assay): < 1 µg/mL

CCc1cccc(CC)c1-n1c(C=C(C)C)c(C(=O)N2CCNCC2C)cc(-c2nc(-c3ccc(Cl)cc3)cs2)c1=O (stereo not drawn) [Compound 100, 3-(4-(4-Chlorophenyl)thiazol-2-yl)-1-(2,6-diethylphenyl)-5-(2-methylpiperazine-1-carbonyl)-6-(2-methylprop-1-en-1-yl)pyridin-2(1H)-one]
PAMPA (10^−6 cm/s) [1]: 40 10^−6 cm/s

CCc1cccc(CC)c1-n1c(C=C(C)C)c(C(=O)N2CCNC3(CC3)C2)cc(-c2nc(-c3ccc(Cl)cc3)cs2)c1=O [Compound 103, 3-(4-(4-Chlorophenyl)thiazol-2-yl)-1-(2,6-diethylphenyl)-6-(2-methylprop-1-en-1-yl)-5-(4,7-diazaspiro[2.5]octane-7-carbonyl)pyridin-2(1H)-one]
PAMPA (10^−6 cm/s) [1]: 48 10^−6 cm/s

CCc1cccc(CC)c1-n1c(C=C(C)C)c(C(=O)N2CCNC(=O)C2)cc(-c2nc(-c3ccc(Cl)cc3)cs2)c1=O [Compound 105, 4-(5-(4-(4-Chlorophenyl)thiazol-2-yl)-1-(2,6-diethylphenyl)-2-(2-methylprop-1-en-1-yl)-6-oxo-1,6-dihydropyridine-3-carbonyl)piperazin-2-one]
PAMPA (10^−6 cm/s) [1]: 275 10^−6 cm/s

CCc1cccc(CC)c1-n1c(C=C(C)C)c(C(=O)N2CCNC(C(=O)O)C2)cc(-c2nc(-c3ccc(Cl)cc3)cs2)c1=O (stereo not drawn) [Compound 108, 4-(5-(4-(4-Chlorophenyl)thiazol-2-yl)-1-(2,6-diethylphenyl)-2-(2-methylprop-1-en-1-yl)-6-oxo-1,6-dihydropyridine-3-carbonyl)piperazine-2-carboxylic acid]
PAMPA (10^−6 cm/s) [1]: <1 10^−6 cm/s

CCc1cccc(CC)c1-n1c(C=C(C)C)c(C(=O)N2C[C@H]3CC[C@@H](C2)N3)cc(-c2nc(-c3ccc(Cl)cc3)cs2)c1=O [Compound 111, 5-((1R,5S)-3,8-Diazabicyclo[3.2.1]octane-3-carbonyl)-3-(4-(4-chlorophenyl)thiazol-2-yl)-1-(2,6-diethylphenyl)-6-(2-methylprop-1-en-1-yl)pyridin-2(1H)-one]
PAMPA (10^−6 cm/s) [1]: 89 10^−6 cm/s

CCc1cccc(CC)c1-n1c(C=C(C)C)c(C(=O)N2C3CCC2CNC3)cc(-c2nc(-c3ccc(Cl)cc3)cs2)c1=O [Compound 112, 5-(3,8-Diazabicyclo[3.2.1]octane-8-carbonyl)-3-(4-(4-chlorophenyl)thiazol-2-yl)-1-(2,6-diethylphenyl)-6-(2-methylprop-1-en-1-yl)pyridin-2(1H)-one]
PAMPA (10^−6 cm/s) ([1]; PAMPA, 30 min, 0.05 mM): 99 10^−6 cm/s

CC(C)=Cc1c(C(=O)N2CCNCC2)cc(-c2nc(-c3ccc(Cl)cc3)cs2)c(=O)n1-c1ccccc1 [Compound 113, 3-(4-(4-Chlorophenyl)thiazol-2-yl)-6-(2-methylprop-1-en-1-yl)-1-phenyl-5-(piperazine-1-carbonyl)pyridin-2(1H)-one]
fold drop in R132H potency (IDH1 R132H; relative to 92): 7.5 fold | fold drop in R132C potency (IDH1 R132C; relative to 92): 55 fold
